Source: publication PMC11054528, “Evaluation of Physicochemical Properties of Ipsapirone Derivatives Based on Chromatographic and Chemometric Approaches” (Molecules, 2024)

Assays:
[1] = calibration mixture for C18-HPLC, reference CHI value; cited from earlier work
[2] = calibration mixture for IAM-HPLC, reference CHI value; column head printed CHI C18; cited from earlier work
[3] = biological target: T1, human serum albumin (HSA) (Homo sapiens, UniProt P02768); conditions: calibration mixture for HSA-HPLC, reference value; column head printed CHI C18; cited from earlier work
[4] = IAM-HPLC, immobilized artificial membrane chromatography (affinity to phospholipids); format: physicochemical; design: scale not given here; conditions: IAM.PC.DD2 column, pH 7.4
Excerpt: In considering that lipophilicity is a known factor influencing passive diffusion across the BBB, this is an important observation. The affinity to phospholipids can also be determined using one-gradient protocols and the IAM column. CHIIAM can be used as a cut-off point to indicate the potential for promiscuous binding and interference with phospholipids.
The immobilized artificial membrane column (IAM.PC.DD2, 10 × 4.6 mm × 10.0 µm with a guard column (Regis Technologies; Morton Grove, IL, USA) was used for IAM-HPLC experiments. The column temperature was set to 30 °C. Similar to RP-HPLC, mobile phase A was a 50 mM ammonium acetate at pH 7.4, and mobile phase B was acetonitrile. The linear gradient from […] ACN was applied from 0 to 5.25 min and held at 98% ACN for 0.5 min at a constant flow rate of 1.5 mL/min.

[5] = Fast gradient RP-HPLC on C18 column (CHI lipophilicity); format: physicochemical; conditions: for CHIC18 pH = 2.6 / CHIC18 pH = 7.4 / CHIC18 pH = 10.6: C18 column; for CHI LogP: from chromatographically determined CHI on nonionized forms (pH 10.6), CHI LogP = 0.054 × CHI − 1.467
Excerpt: Considering the significant differences in the calculations obtained, the next step of our investigation considered the determination of lipophilicity using a chromatographic approach. Among the available protocols, the fast gradient approach developed by Valko was chosen because it enables the assessment of lipophilicity from a single chromatographic measurement. In addition, this approach enables the determination of the acid/basic properties of molecules through the addition of experiments under different pH conditions.
Therefore, the CHI under pH10.6 can be considered and converted to chromatographically determined LogP, called CHI LogP. A cluster analysis (CA) was performed to compare chromatographically determined and calculated lipophilicity. A CA can be used for the visualization of similarities and differences between studied objects, in this case, lipophilic parameters. The obtained results clearly indicate that significant differences between theoretical and experimental data occurred, and they formed two separate groups (Figure 1). The differences are also visible on the calculated correlation matrix (Figure 2).
For RP-HPLC experiments, a C18 Hypersil GOLD^TM (50 mm × 4.6 mm; 5.0 µm with a guard column; Thermo Scientific, Waltham, MA, USA) column was applied. The column temperature was set to 40 °C. Three water solutions were used as mobile phase A: acetic acid at pH 2.6, […] at pH 7.4, and 50 mM ammonium acetate at pH 10.5. Mobile phase B was acetonitrile (ACN). The linear gradient from 2 to 98% ACN was applied from 0 to 5.25 min and held at 98% ACN for 1.75. The mobile phase flow rate was 1.5 mL/min throughout the experiment.

[6] = biological target: T1, human serum albumin (HSA); assay: HSA-HPLC, biomimetic chromatography on Chiralpak HSA column; format: in vitro ADME; design: purchased Daicel Chiral Technologies, West Chester, PA, USA; conditions: for LogKHSA: pH 7.4; for %HSA: pH 7.4, recalculated from logKHSA
Excerpt: Utilizing columns modified by plasma proteins, such as human serum albumin (HSA), allows for estimating binding to plasma protein (PPB). Generally, PPB affects drug pharmacokinetics, including distribution, half-life, and clearance. While lipophilicity is a well-known factor in determining PPB, it should also be considered in early drug discovery. In general, more lipophilic compounds tend to have higher percentages of PP due to nonspecific interactions with proteins. However, hydrophilic compounds can also bind strongly to PP through […] and electrostatic interactions by binding in protein pockets.
For HSA-HPLC experiments, the column was Chiralpak® HSA (100 × 4 mm; 5 µm with safety guard column; Daicel Chiral Technologies, West Chester, PA, USA). The column temperature was set to 30 °C. The same phase A as in the IAM-HPLC case was used, and the mobile phase B was isopropanol (i-PrOH). The linear gradient from 0 to 20% i-PrOH was applied from 0 to 15 min, held at 20% i-PrOH for 12 min, and then returned to pure ammonium acetate solution. The mobile phase flow rate was 0.9 mL/min throughout the experiment. Three minutes of column recalibration was applied between each run. The retention times were collected at wavelengths between 190 and 300 nm, and the injection volume was 10 μL.

T1 sequence (P02768 25-609): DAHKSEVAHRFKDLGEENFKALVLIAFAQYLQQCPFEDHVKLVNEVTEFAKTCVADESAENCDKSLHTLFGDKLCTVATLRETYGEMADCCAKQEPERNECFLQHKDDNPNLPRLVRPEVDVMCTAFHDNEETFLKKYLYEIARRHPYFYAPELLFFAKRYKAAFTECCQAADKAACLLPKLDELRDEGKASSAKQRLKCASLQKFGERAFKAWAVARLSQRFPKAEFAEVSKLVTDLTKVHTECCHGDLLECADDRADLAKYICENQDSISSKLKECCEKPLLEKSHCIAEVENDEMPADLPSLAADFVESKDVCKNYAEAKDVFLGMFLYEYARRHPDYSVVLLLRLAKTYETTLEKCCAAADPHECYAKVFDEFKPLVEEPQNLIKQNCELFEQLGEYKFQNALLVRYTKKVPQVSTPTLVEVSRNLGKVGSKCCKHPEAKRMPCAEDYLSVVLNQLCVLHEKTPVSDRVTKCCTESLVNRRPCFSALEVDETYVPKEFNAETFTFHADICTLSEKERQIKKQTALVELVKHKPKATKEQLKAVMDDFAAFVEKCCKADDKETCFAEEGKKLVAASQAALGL

CCC(=O)c1ccccc1 [Propiophenone]
CHI C18 [1]: 77.5
CHI (IAM-HPLC calibration) [2]: 25.9

CC(=O)Nc1ccc(O)cc1 [Paracetamol]
CHI (IAM-HPLC calibration) [2]: 2.9

CCCCCCC(=O)c1ccccc1 [Heptanophenone]
CHI (IAM-HPLC calibration) [2]: 45.7

CCCCCCCC(=O)c1ccccc1 [Octanophenone]
CHI (IAM-HPLC calibration) [2]: 49.4

CCCCC(=O)c1ccccc1 [Valerophenone]
CHI (IAM-HPLC calibration) [2]: 37.3

CC(=O)Nc1ccccc1 [Acetanilidine]
CHI (IAM-HPLC calibration) [2]: 11.5

CCCCCC(=O)c1ccccc1 [Hexanophenone]
CHI (IAM-HPLC calibration) [2]: 41.8

CC(=O)c1ccccc1 [Acetophenone]
CHI (IAM-HPLC calibration) [2]: 17.2

CNC(=C[N+](=O)[O-])NCCSCc1csc(CN(C)C)n1 [Nizatidine]
HSA binding (HSA-HPLC calibration) [3]: 35.0%

CCCC(=O)c1ccccc1 [Butyrophenone]
CHI (IAM-HPLC calibration) [2]: 32.0

O=C1c2ccccc2S(=O)(=O)N1CCCCCCN1CCN(c2ccccc2F)CC1 [molecule 20]
CHIIAM [4]: 42.69
CHIC18 pH = 2.6 [5]: 57.21
CHIC18 pH = 7.4 [5]: 97.64
CHIC18 pH = 10.6 [5]: 104.68
CHI LogP [5]: 4.19
LogKHSA [6]: 1.00
%HSA [6]: 91.90%

O=C1c2ccccc2S(=O)(=O)N1CCCCCCN1CCN(c2nsc3ccccc23)CC1 [molecule 24]
CHIIAM [4]: 45.78
CHIC18 pH = 2.6 [5]: 60.18
CHIC18 pH = 7.4 [5]: 102.90
CHIC18 pH = 10.6 [5]: 107.33
CHI LogP [5]: 4.33
LogKHSA [6]: 1.23
%HSA [6]: 95.36%
